ChEMBL document CHEMBL1130117, “Structure-activity relationships for the antileishmanial and antitrypanosomal activities of 1'-substituted 9-anilinoacridines” (J Med Chem, 1997)

Columns and labels:
Jurkat = assay: Concentration required to reduce the growth of human Jurkat cells to 50% of control cultures; type: functional, cell-based
Leishmania major = assay: Concentration required to reduce incorporation of [3H]TdR in drug-treated cultures of intracellular Leishmania major to 50% of controls; type: functional, organism-based
[1] = relative lipophilicity determined where possible by computation by the fragment constant method; type: physicochemical; conditions: octanol/water
[2] = Lipophilicity index (substitution method); type: physicochemical; conditions: octanol/water
Leishmania donovani = assay: Concentration required to reduce the number of macrophages infected with Leishmania donovani amastigotes to 50% of untreated controls.; type: functional; conditions: read-out: ED50 (the source's name)
Trypanosoma brucei = assay: Concentration required to inhibit the growth of extracellular Trypanosoma brucei trypomastigotes to 50% of untreated controls.; type: functional; conditions: read-out: ED50 (the source's name)
Trypanosoma cruzi = assay: Concentration required to reduce the number of macrophages infected with Trypanosoma cruzi amastigotes to 50% of untreated controls.; type: functional; conditions: read-out: ED50 (the source's name)

Structure (SMILES) | IC50 (Jurkat) [nM] | IC50 (Leishmania major) [nM] | Liphophilicity [1] [sigma pi] | Index [2] | EC50 (Leishmania donovani) [nM] | EC50 (Trypanosoma brucei) [nM] | EC50 (Trypanosoma cruzi) [nM]
CNc1ccc(Nc2c3ccccc3nc3ccccc23)cc1OC(C)C | 8000 | 1300 | 0.38 |  |  |  | 
Nc1ccc2c(=Nc3ccc(S(N)(=O)=O)cc3)c3ccc(N)cc3[nH]c2c1 |  | > 3000 |  | -4.28 |  |  | 
CCCCCCN(C)c1ccc(Nc2c3ccc(Cl)cc3nc3ccc(OC)cc23)cc1 | > 20000 | 1800 |  | 3.73 | > 3000 | 4300 | > 3000
CCN(CC)c1ccc(Nc2c3ccccc3nc3ccccc23)cc1 | 1000 | 400 |  | 1.18 | 760 | > 300 | > 3000
CCN(CC)CCCNc1ccc(Nc2c3ccccc3nc3ccccc23)cc1 | 1300 | 200 |  | 3.29 |  |  | 
Nc1ccc(Nc2c3ccccc3nc3ccccc23)cn1 | 3600 | 3900 |  | -2.74 |  |  | 
CCCCCCNc1ccc(Nc2c3ccccc3nc3ccccc23)cc1OC | 3500 | 400 |  | 2.36 | 1200 | 650 | 1800
COc1cc(NS(C)(=O)=O)ccc1Nc1c2ccccc2nc2ccccc12 [AMSACRINE] | 200 | 1500 |  | -1.2 |  |  | 
CCCCCCN(C)c1ccc(Nc2c3ccccc3nc3ccccc23)cc1OC | 6500 | 600 |  | 3.02 | 1900 | 1800 | > 300
c1ccc2c(Nc3ccc(NC4CCCCC4)cc3)c3ccccc3nc2c1 | > 15000 | 550 |  | 2 |  |  | 
COc1cc(NS(C)(=O)=O)ccc1Nc1c2ccc(N)cc2nc2cc(N)ccc12 |  | > 3000 |  | -3.66 |  |  | 
c1ccc2c(Nc3ccc(CN4CCCC4)cc3)c3ccccc3nc2c1 | 2000 | 200 |  |  |  |  | 
CNc1ccc(Nc2c3ccccc3nc3ccccc23)cc1OC | 11000 | 3600 |  | -0.49 |  |  | 
NCCCCCCNS(=O)(=O)c1ccc(N=c2c3ccccc3[nH]c3ccccc23)cc1 | > 20000 | > 3000 |  |  |  |  | 
CCCCCCNc1ccc(Nc2c3ccc(Cl)cc3nc3ccc(OC)cc23)cc1OC | > 20000 | 500 |  | 3.71 | 3200 | 600 | 9300
CCN(C)c1ccc(Nc2c3ccccc3nc3ccccc23)cc1OC | 16500 | > 3000 |  | 0.66 |  |  | 
CCN(C)c1ccc(Nc2c3ccccc3nc3ccccc23)cc1 | 4000 | 1000 |  | 0.68 | 4400 | 880 | 3300
CN(C)Cc1ccc(Nc2c3ccc(Cl)cc3nc3cc(Cl)ccc23)cc1 |  | 2000 |  | 1.27 |  |  | 
COc1cc(NS(C)(=O)=O)ccc1Nc1c2ccc(N(C)C)cc2nc2cc(N(C)C)ccc12 | 3000 | > 3000 |  | -0.84 |  |  | 
CCN(CC)CCNc1ccc(Nc2c3ccccc3nc3ccccc23)cc1OC | 1500 | 1600 |  | 3.27 |  |  | 
NCCNCCc1ccc(Nc2c3ccccc3nc3ccccc23)cc1 | 4000 | 700 |  |  |  |  | 
CCCCCCOc1ccc(Nc2c3ccccc3nc3ccccc23)cc1 | 5000 | 1000 |  | 2.87 |  |  | 

Structure (SMILES) | IC50 (Jurkat) [nM] | IC50 (Leishmania major) [nM] | Liphophilicity [1] [sigma pi] | Index [2] | EC50 (Leishmania donovani) [nM] | EC50 (Trypanosoma brucei) [nM] | EC50 (Trypanosoma cruzi) [nM]
c1ccc2c(Nc3ccc(NC4CCCC4)cc3)c3ccccc3nc2c1 | 5000 | 450 |  | 1.8 |  |  | 
NS(=O)(=O)c1ccc(Nc2c3ccccc3nc3ccccc23)cc1 | 5000 | > 3000 |  | -1.82 |  |  | 
CCCCCCNc1ccc(Nc2c3ccccc3nc3ccccc23)cc1 | 17000 | 550 |  | 2.38 | 12300 | 3900 | 2200
CCCCCCN(CCCCCC)c1ccc(Nc2c3ccccc3nc3ccccc23)cc1 | 6500 | 240 |  | 6.2 | 1350 | > 300 | > 3000
c1ccc(Nc2c3ccccc3nc3ccccc23)cc1 | 2700 | 2700 |  | 0 |  |  | 
CCCCCN(CCCCC)c1ccc(Nc2c3ccccc3nc3ccccc23)cc1 | 2300 | 160 |  | 4.88 | > 90000 | 200 | > 300
CN(C)c1ccc(Nc2c3ccccc3nc3ccccc23)cc1 | 1000 | 900 |  | 0.18 | 3600 | 1300 | > 3000
CCCCCNCc1ccc(Nc2c3ccccc3nc3ccccc23)cc1 | 1530 | 2000 |  |  |  |  | 
CCCN(CCC)c1ccc(Nc2c3ccccc3nc3ccccc23)cc1 | 1500 | 200 |  | 2.24 | > 10000 | 370 | 2500
Nc1ccc(Nc2c3ccccc3nc3ccccc23)cc1 |  | 2100 |  | -1.23 |  |  | 
CCCCCCNc1ccc(Nc2c3ccc(Cl)cc3nc3ccc(OC)cc23)cc1 | 4000 | 200 |  | 3.07 | 4000 | > 300 | > 10000
CCCCCCN(C)c1ccc(Nc2c3ccc(N(C)C)cc3nc3cc(N(C)C)ccc23)cc1 | 1750 | 70 |  | 3.4 | 30 | > 300 | 120
CCCCCCCc1ccc(Nc2c3ccccc3nc3ccccc23)cc1 | 13000 | 800 |  | 3.99 |  |  | 
CCCCN(CCCC)c1ccc(Nc2c3ccccc3nc3ccccc23)cc1 | 2000 | 350 |  | 3.56 | > 10000 | 1460 | > 10000
Nc1ccc2c(Nc3ccc(CN4CCCC4)cc3)c3ccc(N)cc3nc2c1 | > 20000 | > 3000 |  |  |  |  | 
CN(C)Cc1ccc(Nc2c3ccc(N)cc3nc3cc(N)ccc23)cc1 | 12000 | 5000 |  | -2.61 |  |  | 
CCN(CC)CCCc1ccc(Nc2c3ccccc3nc3ccccc23)cc1 | < 1000 | 300 |  | 4.22 |  |  | 
CN(C)c1ccc2c(Nc3ccccc3)c3ccc(N(C)C)cc3nc2c1 |  | 30 |  | 0.36 |  |  | 
CCCCCCNc1ccc(Nc2c3ccc(N(C)C)cc3nc3cc(N(C)C)ccc23)cc1 | 1750 | 160 |  | 2.74 | 250 | 200 | > 3000
CN(C)Cc1ccc(Nc2c3ccccc3nc3ccccc23)cc1 |  | 1000 |  | -0.15 |  |  | 
CCCCCCN(C)c1ccc(Nc2c3ccccc3nc3ccccc23)cc1 | 3000 | 300 |  | 3.04 | 1200 | 330 | > 1000
CNc1ccc(Nc2c3ccccc3nc3ccccc23)cc1 |  | 1500 |  | -0.47 |  |  | 
